Laboratory results from patent EP4635500A1, “THERAPEUTIC AGENT FOR BACTERIAL INFECTION” (Sumitomo Pharma Co., Ltd., priority 2022, dated 2024).
Values after ≈ are worked out from the molar mass of the structure shown. Where two headings read alike, the source gives them in different places.

Assays:
Type in all cases: cell-based
Porphyromonas spp. = assay: MIC, agar dilution, anaerobic bacteria (Example 9, Tables 19, 24); conditions: for MIC: (n)=Compound A µg/mL, 0=Compound A alone antibacterial
Escherichia coli = assay: MIC and MBC, broth microdilution (Example 4, Table 3); conditions: for MBC: read-out: MBC; for MIC: read-out: MIC
Acinetobacter baumannii = assay: as above; conditions: for MBC: Acinetobacter baumannii
Morganella morganii = assay: as above; conditions: Morganella morganii CDC-57 (NDM-1)
Klebsiella pneumoniae = assay: as above; conditions: Klebsiella pneumoniae; for MIC: read-out: MIC
[1] = system: Enterobacter cloacae complex; assay: as above; conditions: Enterobacter cloacae complex CDC-164 (NMC-A)
Serratia marcescens = assay: as above; conditions: Serratia marcescens CDC-124 (SME-3)
Prevotella spp. = assay: MIC, agar dilution, anaerobic bacteria (Example 9, Tables 18, 23); conditions: (n)=Compound A µg/mL, 0=Compound A alone antibacterial
[2] = table at the place of Table 24, Prevotella spp.
[3] = ATCCBAA2340, Escherichia coli ATCC BAA-2340 (KPC-3)
[4] = ATCCBAA2469, Escherichia coli ATCC BAA-2469 (NDM-1)
[5] = Escherichia coli NCTC13476 (IMP-1)
[6] = Acinetobacter baumannii CDC-303 (OXA-23, OXA-66)
[7] = ATCCBAA2344, Klebsiella pneumoniae ATCC BAA-2344 (KPC-2)
[8] = ATCCBAA2470, Klebsiella pneumoniae ATCC BAA-2470 (NDM-1)
[9] = ATCCBAA2524, Klebsiella pneumoniae ATCC BAA-2524 (OXA-48)
[10] = Klebsiella pneumoniae CDC-112 (KPC-3)
[11] = Klebsiella pneumoniae CDC-505 (NDM-1)
[12] = Klebsiella pneumoniae KUB3607 (IMP-1)
[13] = NCTC13440, Klebsiella pneumoniae NCTC13440 (VIM-1)

Structure (SMILES): C[C@@H](O)[C@H]1C(=O)N2C(C(=O)O)=C(S[C@@H]3CN[C@H](C(=O)N(C)C)C3)[C@H](C)[C@H]12 [MEPM, meropenem]
- MIC (Porphyromonas spp.; KUB No. 6663 Porphyromonas gingivalis): ≤ 0.03 µg/mL
- MIC (Porphyromonas spp.; KUB No. 6666 Porphyromonas gingivalis): ≤ 0.03 µg/mL
- MIC (Porphyromonas spp.; KUB No. 6667 Porphyromonas gingivalis): ≤ 0.03 µg/mL
- MIC (Porphyromonas spp.; KUB No. 6668 Porphyromonas gingivalis): ≤ 0.03 µg/mL
- MIC (Porphyromonas spp.; KUB No. 6669 Porphyromonas gingivalis): ≤ 0.03 µg/mL
- MIC (Porphyromonas spp.; KUB No. 6670 Porphyromonas gingivalis): ≤ 0.03 µg/mL
- MIC (Porphyromonas spp.; KUB No. 6671 Porphyromonas gingivalis): ≤ 0.03 µg/mL
- MIC (Porphyromonas spp.; KUB No. 6672 Porphyromonas gingivalis): ≤ 0.03 µg/mL
- MIC (Porphyromonas spp.; KUB No. 6673 Porphyromonas gingivalis): ≤ 0.03 µg/mL
- MIC (Porphyromonas spp.; KUB No. 6674 Porphyromonas gingivalis): ≤ 0.03 µg/mL
- MIC (Porphyromonas spp.; KUB No. 6676 Porphyromonas gingivalis): ≤ 0.03 µg/mL
- MIC (Porphyromonas spp.; KUB No. 6677 Porphyromonas gingivalis): ≤ 0.03 µg/mL
- MIC (Porphyromonas spp.; KUB No. 6678 Porphyromonas gingivalis): ≤ 0.03 µg/mL
- MIC (Porphyromonas spp.; KUB No. 6679 Porphyromonas gingivalis): ≤ 0.03 µg/mL
- MIC (Porphyromonas spp.; KUB No. 6680 Porphyromonas gingivalis): ≤ 0.03 µg/mL
- MIC (Porphyromonas spp.; KUB No. 6681 Porphyromonas gingivalis): ≤ 0.03 µg/mL
- MIC (Porphyromonas spp.; KUB No. 6682 Porphyromonas gingivalis): ≤ 0.03 µg/mL
- MIC (Porphyromonas spp.; KUB No. 6683 Porphyromonas gingivalis): ≤ 0.03 µg/mL
- MIC (Porphyromonas spp.; KUB No. 6684 Porphyromonas gingivalis): ≤ 0.03 µg/mL
- MIC (Porphyromonas spp.; KUB No. 6685 Porphyromonas gingivalis): ≤ 0.03 µg/mL
- MIC (Porphyromonas spp.; KUB No. 6686 Porphyromonas gingivalis): ≤ 0.03 µg/mL
- MIC (Porphyromonas spp.; KUB No. 6687 Porphyromonas gingivalis): ≤ 0.03 µg/mL
- MIC (Porphyromonas spp.; KUB No. 6688 Porphyromonas gingivalis): 0.03 µg/mL (≈ 0.0782 µM)
- MIC (Porphyromonas spp.; Porphyromonas, KUB No. 6665 Porphyromonas assaccharolytica): ≤ 0.03 µg/mL
- MIC50 (Porphyromonas spp.; Porphyromonas, n=26, combination: Compound A at 4 ug/mL, read-out: MIC50): ≤ 0.03 µg/mL
- MIC90 (Porphyromonas spp.; Porphyromonas, n=26, combination: Compound A at 4 ug/mL, read-out: MIC90): ≤ 0.03 µg/mL
- MIC50 (Porphyromonas spp.; [2]): ≤0.03 µg/mL
- MIC90 (Porphyromonas spp.; [2]): ≤0.03 µg/mL
- MICrange (Porphyromonas spp.; [2]): ≤0.03 µg/mL
- MBC (Escherichia coli; [3]): 8 µg/mL (≈ 20.9 µM)
- MIC (Escherichia coli; [3]): 4 µg/mL (≈ 10.4 µM)
- MBC (Escherichia coli; [4]): 32 µg/mL (≈ 83.4 µM)
- MIC (Escherichia coli; [4]): 32 µg/mL (≈ 83.4 µM)
- MBC (Escherichia coli; [5]): 8 µg/mL (≈ 20.9 µM)
- MIC (Escherichia coli; [5]): 4 µg/mL (≈ 10.4 µM)
- MIC (Acinetobacter baumannii; [6]): 64 µg/mL (≈ 167 µM)
- MIC (Acinetobacter baumannii; Acinetobacter baumannii CDC-304 (OXA-66, OXA-72), read-out: MIC): 64 µg/mL (≈ 167 µM)
- MBC (Acinetobacter baumannii; [6]): 64 µg/mL (≈ 167 µM)
- MBC (Acinetobacter baumannii; Acinetobacter baumannii CDC-304 (OXA-66, OXA-72)): 64 µg/mL (≈ 167 µM)
- MBC (Morganella morganii): 8 µg/mL (≈ 20.9 µM)
- MIC (Morganella morganii): 8 µg/mL (≈ 20.9 µM)
- MBC (Klebsiella pneumoniae; [7]): 32 µg/mL (≈ 83.4 µM)
- MIC (Klebsiella pneumoniae; [7]): 16 µg/mL (≈ 41.7 µM)
- MBC (Klebsiella pneumoniae; [8]): 32 µg/mL (≈ 83.4 µM)
- MIC (Klebsiella pneumoniae; [8]): 32 µg/mL (≈ 83.4 µM)
- MBC (Klebsiella pneumoniae; [9]): 4 µg/mL (≈ 10.4 µM)
- MIC (Klebsiella pneumoniae; [9]): 1 µg/mL (≈ 2.61 µM)
- MBC (Klebsiella pneumoniae; [10]): 32 µg/mL (≈ 83.4 µM)
- MIC (Klebsiella pneumoniae; [10]): 32 µg/mL (≈ 83.4 µM)
- MBC (Klebsiella pneumoniae; [11]): 64 µg/mL (≈ 167 µM)
- MIC (Klebsiella pneumoniae; [11]): 64 µg/mL (≈ 167 µM)
- MBC (Klebsiella pneumoniae; [12]): 8 µg/mL (≈ 20.9 µM)
- MIC (Klebsiella pneumoniae; [12]): 8 µg/mL (≈ 20.9 µM)
- MBC (Klebsiella pneumoniae; [13]): 64 µg/mL (≈ 167 µM)
- MIC (Klebsiella pneumoniae; [13]): 16 µg/mL (≈ 41.7 µM)
- MBC [1]: 32 µg/mL (≈ 83.4 µM)
- MIC [1]: 32 µg/mL (≈ 83.4 µM)
- MIC (Serratia marcescens): 64 µg/mL (≈ 167 µM)
- MIC (Prevotella spp.; KUB No. 2989 Prevotella histicola): 0.06 µg/mL (≈ 0.156 µM)
- MIC (Prevotella spp.; KUB No. 2991 Prevotella intermedia): 0.06 µg/mL (≈ 0.156 µM)
- MIC (Prevotella spp.; KUB No. 2992 Prevotella buccae): 0.12 µg/mL (≈ 0.313 µM)
- MIC (Prevotella spp.; KUB No. 3005 Prevotella melaninogenica): ≤ 0.03 µg/mL
- MIC (Prevotella spp.; KUB No. 6558 Prevotella heparinolytica): 0.06 µg/mL (≈ 0.156 µM)
- MIC (Prevotella spp.; KUB No. 6559 Prevotella intermedia): ≤ 0.03 µg/mL
- MIC (Prevotella spp.; KUB No. 6560 Prevotella nigrescens): ≤ 0.03 µg/mL
- MIC (Prevotella spp.; KUB No. 6561 Prevotella melaninogenica): 0.12 µg/mL (≈ 0.313 µM)
- MIC (Prevotella spp.; KUB No. 6563 Prevotella nigrescens): ≤ 0.03 µg/mL
